Test results published in patent publication US10273237B2, “Imidazopyridazine compounds useful as modulators of IL-12, IL-23 and/or IFN-α responses” (BRISTOL-MYERS SQUIBB COMPANY, priority 2013, dated 2019).

Experiments:
[1] = tested on: IFNα-stimulated Kit225 T cells with STAT-dependent luciferase reporter; assay: Kit225 T cell assay, STAT-dependent luciferase reporter, IFNα stimulated; type: cell-based, human; conditions: 200 U/mL human recombinant IFNα, 5-6 hours, read-out: IFNa Kit225 Reporter, LE (IC50)
Procedure: (§1) Kit225 T cells with a stably-integrated STAT-dependent luciferase reporter were plated in RPMI (GIBCO) containing 10% heat-inactivated FBS (GIBCO) and 100 U/mL PenStrep (GIBCO). The cells were then stimulated with either 20 ng/mL human recombinant IL-23 or 200 U/mL human recombinant IFNα (PBL InterferonSource) for 5-6 hours. Luciferase expression was measured using the STEADY-GLO® Luciferase Assay System (PROMEGA®) according to the manufacturer's instructions.

[2] = tested on: IL-23-stimulated Kit225 T cells with STAT-dependent luciferase reporter; assay: Kit225 T cell assay, STAT-dependent luciferase reporter, IL-23 stimulated; type: cell-based, human; conditions: 20 ng/mL human recombinant IL-23, 5-6 hours, read-out: IL-23 Kit225 Reporter, LE (IC50)
Procedure: as §1

Row | SMILES | IC50 [1] [nM] | IC50 [2] [nM]
1 | CNc1cc(Nc2cccn(-c3ccn(C)n3)c2=O)nn2c(C(=O)N[C@@H]3C[C@@H]3F)cnc12 [Example 169] | 40 | 80
2 | CNc1cc(Nc2cccn(-c3ncccn3)c2=O)nn2c(C(=O)NC3CCCC3)cnc12 [Example 170] | 370 | 190
3 | CNc1cc(Nc2cccn(-c3ncc(F)cn3)c2=O)nn2c(C(=O)NC3CC3)cnc12 [Example 171] | 140 | 210
4 | CNc1cc(Nc2cccn(-c3ncc(F)cn3)c2=O)nn2c(C(=O)NC3CCCC3)cnc12 [Example 172] | 180 | 260
5 | CNc1cc(Nc2cccn(-c3ncc(F)cn3)c2=O)nn2c(C(=O)NC3CCC3)cnc12 [Example 173] | 50 | 50
6 | CNc1cc(Nc2cccn(-c3ncc(F)cn3)c2=O)nn2c(C(=O)N[C@@H]3C[C@@H]3F)cnc12 [Example 174] | 40 | 50
7 | CNc1cc(Nc2cccn(-c3ncc(C(F)(F)F)cn3)c2=O)nn2c(C(=O)NC3CC3)cnc12 [Example 175] | 110 | 310
8 | CNc1cc(Nc2ccnn(-c3ccccc3)c2=O)nn2c(C(=O)NC3CC3)cnc12 [Example 179] | 570 | 480
9 | CCc1ccc(-n2cccc(Nc3cc(NC)c4ncc(C(=O)N[C@@H]5C[C@@H]5F)n4n3)c2=O)nn1 [Example 181] | 350 | 290
10 | CNc1cc(Nc2cccn(-c3ccccc3)c2=O)nn2c(C(=O)NCc3nccs3)cnc12 [Example 182] | 270 | 220
11 | CNc1cc(Nc2cccn(-c3ccccc3)c2=O)nn2c(C(=O)NC3CCCC3O)cnc12 (stereo not shown) [Example 189] | 190 | 230
12 | CNc1cc(Nc2cccn(-c3ccccc3)c2=O)nn2c(C(=O)N[C@@H]3C[C@@H]3F)cnc12 [Example 191] | 20 | 40
13 | CNc1cc(Nc2cccn(-c3cccc(F)n3)c2=O)nn2c(C(=O)NCc3nccs3)cnc12 [Example 192] | 180 | 230
14 | CNc1cc(Nc2cccn(-c3cccc(F)n3)c2=O)nn2c(C(=O)NCc3ccccn3)cnc12 [Example 193] | 330 | 140
15 | CNc1cc(Nc2cccn(-c3nnc(C)s3)c2=O)nn2c(C(=O)N[C@@H]3C[C@@H]3F)cnc12 [Example 195] | 60 | 110
16 | CNc1cc(Nc2ccnn(-c3cccc(C#N)c3)c2=O)nn2c(C(=O)N[C@@H]3C[C@@H]3F)cnc12 [Example 196] | 40 | 160
17 | CNc1cc(Nc2cccn(-c3ccc(C)nn3)c2=O)nn2c(C(=O)NCC(C)C)cnc12 [Example 200] | 260 | 110
18 | CNc1cc(Nc2cccn(-c3cnn(C)c3)c2=O)nn2c(C(=O)NC3CC3)cnc12 [Example 203] | 200 | 190
19 | CNc1cc(Nc2cccn(-c3ccc(OC)nc3)c2=O)nn2c(C(=O)NC3CC3)cnc12 [Example 204] | 100 | 70
20 | CNc1ccc(-n2cccc(Nc3cc(NC)c4ncc(C(=O)NC5CC5)n4n3)c2=O)cn1 [Example 206] | 380 | 490
21 | CNc1cc(Nc2cccn(C)c2=O)nn2c(C(=O)NC3CCCC3)cnc12 [Example 208] | 60 | 80
22 | CNc1cc(Nc2cccn(C)c2=O)nn2c(C(=O)NC(C)C)cnc12 [Example 209] | 330 | 180
23 | CCNC(=O)c1cnc2c(NC)cc(Nc3cccn(C)c3=O)nn12 [Example 210] | 390 | 220
24 | CNc1cc(Nc2cccn(C)c2=O)nn2c(C(=O)Nc3ccccc3)cnc12 [Example 212] | 2480 | 110
25 | CNc1cc(Nc2cccn(C(C)C)c2=O)nn2c(C(=O)NC3CC3)cnc12 [Example 213] | 420 | 230
26 | CNc1cc(Nc2cccn(C)c2=O)nn2c(C(=O)NC3CCCCC3C)cnc12 (stereo not shown) [Example 215] | 300 | 190
27 | CNc1cc(Nc2cccn(C(C)C)c2=O)nn2c(C(=O)NC3(C#N)CC3)cnc12 [Example 216] | 440 | 900
28 | CNc1cc(Nc2cccn(C(C)C)c2=O)nn2c(C(=O)NCC(C)(C)CO)cnc12 [Example 217] | 100 | 90
29 | CNc1cc(Nc2cccn(C(C)(C)C)c2=O)nn2c(C(=O)NC3CC3)cnc12 [Example 218] | 130 | 190
